Results published in PubChem BioAssay (NCI).
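Method: 48-hour compound exposure of cells in 96-well plates, five concentrations, linear interpolation of endpoints. The concentration for 50% growth inhibition is given as GI50. TGI denotes the concentration required for complete inhibition of growth.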

What was measured:
Assay in all cases: NCI tumour cell line growth inhibition, 48 h
[1] = system: A549 NSCLC
[2] = system: HOP-62 NSCLC
[3] = system: NCI-H226 lung
[4] = system: SF-539 CNS
[5] = system: HL-60(TB) leukemia
[6] = system: SK-MEL-5 melanoma
[7] = system: K-562 leukemia
[8] = system: HT29 colon
[9] = system: SR leukemia
[10] = system: MDA-MB-435

Structure (SMILES) | TGI [1] | TGI [2] | TGI [3] | TGI [4] | TGI [5] | TGI [6] | TGI [7] | TGI [8] | TGI [9] | TGI [10] | GI50 [1] | GI50 [2] | GI50 [3] | GI50 [4] | GI50 [5] | GI50 [6] | GI50 [7] | GI50 [8] | GI50 [10]
Cc1cccc(NC(=O)C(=O)C2C(=O)NC(=O)NC2=O)c1C | > 100 µM | > 100 µM | > 100 µM | > 100 µM | > 100 µM | > 100 µM | > 100 µM | > 100 µM | > 100 µM |  |  |  |  |  |  |  |  |  | 
COc1ccccc1/C=C\c1cnnc2ccccc12 | > 10 µM | > 10 µM | > 10 µM | > 10 µM | > 10 µM | > 10 µM | > 10 µM | > 10 µM |  | > 10 µM |  |  |  |  |  |  |  |  | 
O=C(c1ccccc1)C1C(C(=O)c2ccccc2)N1Cc1ccccc1 (configuration not stated) | > 100 µM | > 100 µM | > 100 µM |  |  | 36.7 µM | > 100 µM | > 100 µM |  | 68.3 µM |  |  |  |  |  |  |  |  | 
COC(=O)C(=O)C1(CCC(C)=O)c2ccccc2-c2ccccc21 | > 100 µM | > 100 µM | > 100 µM |  | > 100 µM | > 100 µM | > 100 µM | > 100 µM | > 100 µM |  |  |  |  |  |  |  |  |  | 
CCOC(=O)C1N(S(=O)(=O)c2ccc(C)cc2)CCC12c1ccccc1N(C(C)=O)C2C(/C=C/C(=O)OC)=C/C(=O)OC (configuration not stated) | > 100 µM | > 100 µM | > 100 µM | > 100 µM | > 100 µM | > 100 µM | > 100 µM | > 100 µM |  |  |  |  |  |  |  |  |  |  | 
CC(C)[C@@H]1C=C(c2ccccc2)c2ccccc2C1C(C#N)(C#N)C(C)C (some centres not stated) | > 100 µM | > 100 µM | > 100 µM | > 100 µM | > 100 µM | > 100 µM | > 100 µM | > 100 µM | > 100 µM |  |  |  |  |  |  |  |  |  | 
Cc1cc(C)cc(-n2c3nc(=O)n(C)c(=O)c-3nc3ccccc32)c1 | 70.6 µM | > 100 µM | > 100 µM | 49.7 µM |  | 30.8 µM | 65.3 µM | 41.3 µM |  |  |  |  |  |  |  |  |  |  | 
Cc1cnc[nH]c1=O | > 100 µM | > 100 µM | > 100 µM |  | > 100 µM | > 100 µM | > 100 µM | > 100 µM |  |  |  |  |  |  |  |  |  |  | 
COC(=O)C[CH](C(=O)OC)[Ge]([CH3])([CH3])[S]c1ccccc1 (configuration not stated) | > 100 µM | 50.5 µM | 35.1 µM | 39.7 µM | 17.5 µM | > 100 µM | > 100 µM | 38.5 µM |  |  | 43.9 µM | 22.4 µM | 13.8 µM | 22.1 µM | 3 µM | 33.1 µM | 17.4 µM | 18.6 µM | 
Cn1c2ccccc2c(=Nc2ccccc2)c2c3ccccc3[nH]c21 |  | 2.42 µM | 2 µM | 2.46 µM |  | 2.06 µM | 15.7 µM | > 100 µM |  | 3.32 µM |  | 1.14 µM | 0.615 µM | 1.17 µM |  | 0.787 µM | 1.84 µM | 2.36 µM | 1.84 µM
N/C(=N\NS(=O)(=O)c1ccccc1)Oc1ccc(Cl)cc1 | > 100 µM | > 100 µM | > 100 µM | > 100 µM | 60.6 µM | > 100 µM | > 100 µM | > 100 µM | > 100 µM |  |  |  |  |  |  |  |  |  | 
C(=N\Nc1nnc2c(n1)[nH]c1ccccc12)/c1cccnc1 | > 100 µM | > 100 µM | > 100 µM | > 100 µM | > 100 µM | > 100 µM | > 100 µM | > 100 µM |  | > 100 µM |  |  |  |  |  |  |  |  | 
O=c1[nH]cc(CS(=O)(=O)Cc2c[nH]c(=O)[nH]c2=O)c(=O)[nH]1 | > 100 µM |  | > 100 µM | > 100 µM |  | > 100 µM | > 100 µM | > 100 µM | > 100 µM | > 100 µM |  |  |  |  |  |  |  |  | 
CCCCCCCCCCCC(=O)OCC1OC(n2cc(F)c(=O)[nH]c2=O)C(NC(=O)OCc2ccccc2)C(O)C1O (configuration not stated) | 43.2 µM | > 100 µM |  | 49.4 µM | 49.7 µM | 34.6 µM | 52.3 µM | 29.8 µM | 41.2 µM |  |  |  |  |  |  |  |  |  | 
Cc1cc(NS(=O)(=O)c2ccc(Nc3c4ccccc4nc4c(C(=O)Nc5ccc(S(=O)(=O)N=C(N)N)cc5)cccc34)cc2)no1 | > 100 µM | > 100 µM |  | > 100 µM |  | > 100 µM | > 100 µM | > 100 µM |  |  |  |  |  |  |  |  |  |  | 
C=CN1C(=O)OC(c2ccccc2)C1c1ccccc1 (configuration not stated) | > 100 µM | > 100 µM | > 100 µM | > 100 µM | > 100 µM | > 100 µM | > 100 µM | > 100 µM | > 100 µM |  | > 100 µM | 52.8 µM | > 100 µM |  |  | > 100 µM |  | > 100 µM | 
COc1ccc2cccc(C(=O)c3ccc(C)c4c3CCC4)c2c1 | > 100 µM | 69.3 µM | > 100 µM |  | 44.7 µM | 36.8 µM | > 100 µM | > 100 µM | 85.3 µM |  |  |  |  |  |  |  |  |  | 
Cc1ccc(S(=O)(=O)N(/N=C(\N)Oc2ccc(Cl)cc2)C(=N)Oc2ccc(Cl)cc2)cc1 | > 100 µM | > 100 µM | > 100 µM | > 100 µM | > 100 µM | > 100 µM | > 100 µM | > 100 µM | > 100 µM |  |  |  |  |  |  |  |  |  | 
CCC1C(C)c2c([nH]c3ccccc23)C2C(=O)N(c3ccccc3)C(=O)C21 (configuration not stated) | 48.5 µM |  |  | 34.5 µM | 33.9 µM | 28.8 µM | 44.3 µM | 28.2 µM | 47.3 µM |  |  |  |  |  |  |  |  |  | 
CCCCCCCCCCCCn1c(C)nc2ccccc21 | 20.7 µM | 25.5 µM | 31.7 µM | 27 µM | 18.5 µM | 18.2 µM | 16.4 µM | 23.7 µM |  | 28.8 µM | 0.4 µM | 12.4 µM | 12.7 µM | 13.7 µM | 2.54 µM | 0.984 µM | 1.11 µM | 11.6 µM | 12.8 µM
S=c1nc[nH]c2c1ncn2Cc1ccco1 | > 100 µM | > 100 µM | > 100 µM | > 100 µM |  | > 100 µM | > 100 µM | > 100 µM | > 100 µM | > 100 µM |  |  |  |  |  |  |  |  | 
COC(=O)/C=C/C(=O)C1C(C(=O)OC)C2(C(=O)OC)CCC1(C(=O)OC)N2 (configuration not stated) | > 100 µM | > 100 µM |  | > 100 µM | > 100 µM | > 100 µM | > 100 µM | > 100 µM | > 100 µM |  |  |  |  |  |  |  |  |  | 
